Key:
FcPT1a = FcPT1a (Ficus carica, UniProt A0A6S4Q0J8); conditions: read-out: apparent Km; co-substrate DMAPP; Mg2+; 28 °C
Protocol: microsomal prenyltransferase assay, HPLC-PDA, nonlinear fit on FcPT1a | The apparent K m values of FcPT1a for umbelliferone and DMAPP were determined

FcPT1b = biological target: T1, FcPT1b (Ficus carica, UniProt A0A6S4PSN9); assay: microsomal prenyltransferase assay, HPLC and LC-MS2 product identification; format: biochemical; conditions: 50 µM umbelliferone, 200 µM DMAPP, 10 mM MgCl2; product demethylsuberosin (DMS)
T1 construct: full CDS with transit peptide, pGWB502 (35S promoter), transient expression in Nicotiana benthamiana leaves, microsomes
T1 sequence (A0A6S4PSN9 1-422): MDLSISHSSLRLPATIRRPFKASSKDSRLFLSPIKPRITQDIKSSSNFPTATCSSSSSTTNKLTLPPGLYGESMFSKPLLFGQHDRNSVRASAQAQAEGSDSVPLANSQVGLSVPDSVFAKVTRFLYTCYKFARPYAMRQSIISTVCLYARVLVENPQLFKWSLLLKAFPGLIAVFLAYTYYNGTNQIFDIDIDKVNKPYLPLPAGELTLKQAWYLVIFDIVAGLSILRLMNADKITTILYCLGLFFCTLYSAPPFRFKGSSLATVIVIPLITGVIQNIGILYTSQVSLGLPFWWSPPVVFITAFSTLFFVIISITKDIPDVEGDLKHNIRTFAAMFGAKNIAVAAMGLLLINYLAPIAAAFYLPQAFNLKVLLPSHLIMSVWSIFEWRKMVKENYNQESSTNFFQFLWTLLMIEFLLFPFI

[1] = system: CC(C)=CCOP(=O)(O)OP(=O)(O)O; assay: cells, lysate or membranes; conditions: co-substrate umbelliferone, Mg2+, 28 °C

Km (FcPT1a) [µM] | Compound | microsomal prenyltransferase assay, HPLC and LC-MS2 product identification (FcPT1b) | Km [1] [µM]
35 ± 4 | O=c1ccc2ccc(O)cc2o1 [umbelliferone] | recombinant FcPT1a/b proteins yielded an enzymatic reaction product concomitant with the consumption of umbelliferone | 
 | CC(C)=CCOP(=O)(O)OP(=O)(O)O [dimethylallyl diphosphate] | UDT reaction mixtures composed of microsomes containing recombinant FcPT1a/b proteins yielded an enzymatic reaction product | 
 | FcPT1a (Ficus carica) |  | 17 ± 1

From paper PMC7028039, “Convergent evolution of the UbiA prenyltransferase family underlies the independent acquisition of furanocoumarins in plants” (The New Phytologist, 2019)
